Test results taken from article PMC9697446 (International Journal of Molecular Sciences, 2022).
Values joined by “and” are separate entries in the source; they are usually repeats but may differ in a detail not shown here. Equal entries are not always repeated.

Legend:
[1] = ABTS radical cation scavenging assay; details: 1 h incubation, means ± SEM (n = 3); for IC50: 50% reduction of ABTS radical; for ABTS Scavenging Activity, TEAC Value: Trolox equivalent antioxidant capacity
Protocol: The ABTS assay is based on the direct binding of a model ABTS radical cation (2,2′-azino-bis-(3-ethylbenzothiazoline-6-sulfonate), ABTS^•+) by antioxidants. The measurements were performed as previously described in detail.
The radical scavenging activity was expressed as TEAC values (Trolox equivalent antioxidant capacity) and determined as the ratio between the slopes obtained from the linear correlation of the ABTS radical absorbance with the concentrations of the test compounds and Trolox.
The radical scavenging activity of the compounds was assessed using an ABTS radical decolorization assay. The procedure followed the reported protocol with minor modifications. ABTS (2,2ʹ-azino-bis-(3-ethylbenzothiazoline-6-sulfonic acid) diammonium salt) was purchased from TCI (Tokyo, Japan), while potassium persulfate (di-potassium peroxodisulfate), Trolox (6-hydroxy-2,5,7,8-tetramethylchroman-2-carboxylic acid), catechol, and DMSO were received from Sigma-Aldrich Chemical Co. (St. Louis, MO, USA). The ethanol was HPLC grade. Aqueous solutions were prepared using deionized water.
Trolox was used as the standard reference compound. Catechol was used as the positive control. All test and reference compounds were dissolved in DMSO. The final concentration of DMSO in the reaction mixture was 4% (v/v).
The solution of ABTS radical cation (ABTS^•+) was produced by mixing a 7 mM ABTS stock solution with a 2.45 mM aqueous solution of potassium persulfate in equal quantities and allowing them to react for 12–16 h at room temperature in the dark. At the time of activity determination, the ABTS^•+ solution was diluted with ethanol to adjust it to an absorbance value of about 0.80 ± 0.05 at 734 nm. A fresh working solution of ABTS^•+ was prepared for each assay.
The radical scavenging capacity of the compounds was analyzed by mixing 10 μL of test compound with 240 μL of ABTS^•+ working solution. The reduction in absorbance was measured spectrophotometrically at 734 nm using an xMark microplate UV/VIS spectrophotometer (Bio-Rad, Hercules, CA, USA). The reaction was monitored for an hour at 10 min intervals. Data were given for 1 h of incubation of compounds with ABTS^•+. EtOH blanks were run in each assay. The results were obtained from three replicates of each sample and three independent experiments.
The antioxidant capacity as a Trolox equivalent (TEAC values) was determined as the ratio between the slopes obtained from the linear correlation of concentrations of test compounds and Trolox with absorbance of ABTS radical.

human erythrocyte AChE = biological target: T1, human erythrocyte AChE (Homo sapiens, UniProt P22303); assay: biochemical; details: IC50 ± SEM, n = 3
T1 construct: The esterase profile was estimated using the human erythrocyteAChE; purchased Sigma-Aldrich; host or cells: human erythrocytes
T1 sequence (P22303 32-617 isoform P22303-2 limits assumed): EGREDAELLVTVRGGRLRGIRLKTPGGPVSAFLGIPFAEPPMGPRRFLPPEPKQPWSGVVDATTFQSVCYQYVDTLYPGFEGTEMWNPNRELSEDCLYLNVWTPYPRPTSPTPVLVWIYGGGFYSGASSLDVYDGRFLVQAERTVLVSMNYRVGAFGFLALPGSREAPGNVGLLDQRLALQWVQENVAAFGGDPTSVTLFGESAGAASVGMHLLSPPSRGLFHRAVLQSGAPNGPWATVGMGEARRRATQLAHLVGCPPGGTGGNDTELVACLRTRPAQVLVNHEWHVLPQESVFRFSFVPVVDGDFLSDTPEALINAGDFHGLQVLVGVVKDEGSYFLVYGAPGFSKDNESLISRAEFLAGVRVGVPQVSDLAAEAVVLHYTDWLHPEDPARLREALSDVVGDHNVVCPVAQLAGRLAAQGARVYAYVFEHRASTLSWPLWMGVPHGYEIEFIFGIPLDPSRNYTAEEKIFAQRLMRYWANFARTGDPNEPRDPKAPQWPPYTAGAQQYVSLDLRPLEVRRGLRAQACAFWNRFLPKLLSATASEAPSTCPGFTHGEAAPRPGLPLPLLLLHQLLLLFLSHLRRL
Protocol: (§1) The esterase profile was estimated using the human erythrocyteAChE, the equine serum BChE, and the porcine liver CES.
(§2) Human erythrocyte AChE, equine serum BChE, porcine liver CES, acetylthiocholine iodide (ATCh), butyrylthiocholine iodide (BTCh), 5,5′-dithio-bis-(2-nitrobenzoic acid) (DTNB), 4-nitrophenol acetate (4-NPA), and BNPP were purchased from Sigma-Aldrich (St. Louis, MO, USA).
(§3) AChE and BChE activities were measured via the Ellman method. The assay solution consisted of 0.1 M K/Na phosphate buffer pH 7.5, 25 °C with the addition of 0.33 mM DTNB, 0.02 unit/mL of AChE or BChE and 1 mM of substrate (ATCh or BTCh, respectively). The assays were carried out with a reagent blank containing all components (except AChE orBChE) in order to account for the non-enzymatic hydrolysis of the substrate. In addition, an enzyme blank was included that contained all components except substrate to account for non-substrate sulfhydryl groups.
(§4) The test compounds were dissolved in DMSO, and the incubation mixture contained 2% (v/v) of the solvent. Enzyme inhibition was first assessed at a single concentration of 20 µM for each compound after a 5 min incubation at 25 °C in three separate experiments. […] The test compounds were added to the assay solution and preincubated at 25 °C with the enzymes for 5 min, followed by the addition of substrate. A parallel control was made for the assay solution with no inhibitor. Measurements were performed with a FLUOStar Optima microplate reader (BMG Labtech, Ortenberg, Germany). Each experiment was performed in triplicate. The results were expressed as the mean ± SEM. The reaction rates in the presence and absence of the inhibitor were compared, and the percent of residual enzyme activity due to the presence of test compounds was calculated.

equine serum BChE = biological target: T2, equine serum BChE (Equus caballus, UniProt P81908); assay: biochemical; details: n = 3; for IC50: IC50 ± SEM
T2 construct: the equine serum BChE, and the porcine liver CES; purchased Sigma-Aldrich; host or cells: equine serum
T2 sequence (P81908 whole entry): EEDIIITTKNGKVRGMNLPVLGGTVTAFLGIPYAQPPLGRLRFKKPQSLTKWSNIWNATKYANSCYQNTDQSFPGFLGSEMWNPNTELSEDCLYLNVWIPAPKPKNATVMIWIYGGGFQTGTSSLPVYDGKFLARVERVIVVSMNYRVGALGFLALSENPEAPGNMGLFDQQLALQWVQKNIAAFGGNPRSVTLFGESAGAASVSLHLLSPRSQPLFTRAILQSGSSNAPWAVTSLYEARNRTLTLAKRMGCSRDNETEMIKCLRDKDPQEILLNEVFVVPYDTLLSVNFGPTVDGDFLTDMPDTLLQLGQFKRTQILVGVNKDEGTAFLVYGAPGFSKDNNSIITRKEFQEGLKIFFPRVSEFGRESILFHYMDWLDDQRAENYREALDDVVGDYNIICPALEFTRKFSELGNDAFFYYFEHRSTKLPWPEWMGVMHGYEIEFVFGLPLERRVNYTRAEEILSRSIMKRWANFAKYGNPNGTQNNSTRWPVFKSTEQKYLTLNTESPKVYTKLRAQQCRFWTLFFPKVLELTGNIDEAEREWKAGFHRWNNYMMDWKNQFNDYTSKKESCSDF
Protocol: as §1, §2, §3, §4

[2] = Oxygen radical absorbance capacity assay (ORAC-FL); details: Trolox equivalent, Trolox = 1; means ± SEM (n = 3)
Source text: The method is based on the measurement of the fluorescence intensity characterizing the degree of destruction of the fluorescence probe under the action of peroxyl radicals.
The peroxyl radical scavenging capacity of the test compounds was characterized in terms of the Trolox equivalent (TE), which is equal to the ratio of the Trolox concentration to the concentration of a test compound when they show equal fluorescence intensities in the assay. The peroxyl radical scavenging capacity of Trolox was set as 1 [67, 68].
2,2´-Azobis(amidinopropane) dihydrochloride (AAPH), (±)-6-hydroxy-2,5,7,8-tetramethylchroman-2-carboxylic acid (Trolox), and fluorescein (FL) were purchased from Sigma-Aldrich. The reaction was carried out at 37 °C in 75 mM K,Na phosphate buffer (pH 7.4), and the final reaction mixture was 200 µL. The test compounds and the Trolox standard were dissolved in DMSO to 10 mM and further diluted in a 75 mM K,Na phosphate buffer (pH 7.4). The final concentrations were 0.1–1 µM for the test compounds and 1–6 µM for the Trolox. The blank was composed of 20 µL of a 75 mM K,Na phosphate buffer (pH 7.4) containing 20% (v/v) DMSO, 120 µL of FL and 60 µL of AAPH, and it was added in each assay. The antioxidant (20 µL) and FL (120 µL, final concentration: 70 nM) solutions were placed in a black 96-well microplate and were preincubated for 15 min at 37 °C. A solution of AAPH (60 µL, final concentration: 12 mM) was then added rapidly using a multichannel pipette. The microplate was immediately placed in the reader, and the fluorescence was recorded every minute for 100 min. The microplate was automatically shaken prior to each reading. The Trolox standard curve was also obtained in each assay. All reactions were carried out in triplicate, and at least three different assays were performed for each sample.
The antioxidant curves (fluorescence vs. time) were first normalized to the curve of the blank (without the antioxidant) corresponding to the same assay, and the area under the fluorescence decay curve (AUC) was calculated. The net AUC corresponding to a sample was calculated by subtracting the AUC corresponding to the blank. Regression equations were calculated by plotting the net AUC against the antioxidant concentration. The ORAC Tolox equivalent value (TE) was obtained by dividing the slope of the latter curve by the slope of the Trolox curve obtained in the same assay. The ability of Trolox to scavenge the peroxyl radical was equal to 1 [64, 65]. […] The data are expressed as means ± SEM.

EeAChE = biological target: T3, EeAChE (Electrophorus electricus, UniProt O42275); assay: biochemical; details: means ± SEM (n = 3); read-out: EeAChE Inhibition, IC50
T3 construct: purchased Sigma-Aldrich type VI-S
T3 sequence (O42275 24-633): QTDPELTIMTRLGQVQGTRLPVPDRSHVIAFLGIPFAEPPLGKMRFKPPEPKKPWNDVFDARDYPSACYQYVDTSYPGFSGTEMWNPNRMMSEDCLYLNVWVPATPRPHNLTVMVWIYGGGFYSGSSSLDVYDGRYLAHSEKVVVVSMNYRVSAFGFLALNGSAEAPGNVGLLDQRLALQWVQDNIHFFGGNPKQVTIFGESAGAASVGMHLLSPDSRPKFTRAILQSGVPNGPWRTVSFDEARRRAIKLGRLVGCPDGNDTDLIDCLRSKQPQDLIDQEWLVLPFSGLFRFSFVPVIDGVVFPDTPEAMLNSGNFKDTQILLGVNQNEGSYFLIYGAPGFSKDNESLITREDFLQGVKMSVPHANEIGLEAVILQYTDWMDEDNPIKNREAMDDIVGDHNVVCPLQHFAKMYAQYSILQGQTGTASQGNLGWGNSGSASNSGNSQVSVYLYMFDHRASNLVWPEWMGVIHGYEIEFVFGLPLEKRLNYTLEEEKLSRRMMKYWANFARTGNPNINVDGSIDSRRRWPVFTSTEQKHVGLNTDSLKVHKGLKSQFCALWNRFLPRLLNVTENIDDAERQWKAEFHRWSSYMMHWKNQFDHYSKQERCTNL
Protocol: We selected AChE from electric eels (Electrophorus electricus) for consistency with our other reports and because of its purity, specific activity, and lower cost compared to human AChE [64].
as §3, §4
PIand donepezil were purchased from Sigma-Aldrich. […] As the source of the enzyme, electric eel (Elecrophorus electricus) AChE (EeAChE, type VI-S, lyophilized powder, Sigma-Aldrich, Saint Louis, MO, USA) was used. The applicability of this enzyme was shown earlier

porcine liver CES = assay: CES inhibition (4-nitrophenyl acetate hydrolysis); assay type: biochemical; details: ± SEM, n = 3;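 note: values are percent inhibition of CES activity not residual activity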
Protocol: as §1, §2
The assay solution consisted of 0.1 M K/Na phosphate buffer pH 8.0, 25 °C, with the addition of 1 mM 4-nitrophenyl acetate and 0.02 unit/mL of CES. The assays were carried out with a blank containing all components, except CES.
as §4

SMILES | IC50 [1] | ABTS Scavenging Activity, TEAC Value [1] | IC50 (human erythrocyte AChE) | IC50 (equine serum BChE) | ORAC, TE Value [2] | IC50 (EeAChE) | CES inhibition at 20 µM (porcine liver CES) | inhibition at 20 µM (equine serum BChE; 20 µM, ± SEM)
CN(C)c1ccc2c(c1)Sc1cc(N(C)C)ccc1N2C(=O)CCn1c2c(c3ccccc31)CCC2 [Compound 4a] | 21 ± 1.4 µM | 0.99 ± 0.08 | 11.1 ± 0.69 µM | 42.13 ± 0.41 µM | 6.8±0.4 | 2.35 ± 0.23 µM | 19.4 ± 1.8% | 
CN(C)c1ccc2c(c1)Sc1cc(N(C)C)ccc1N2C(=O)CCn1c2c(c3ccccc31)CCCC2 [Compound 4b] | 24.3 ± 1.5 µM | 0.90 ± 0.04 | 12.3 ± 1.51 µM | 48.7 ± 2.09 µM | 8.6 ± 0.1 | 2.42 ± 0.18 µM | 22.6 ± 2.1% | 
Cc1ccc2c(c1)c1c(n2CCC(=O)N2c3ccc(N(C)C)cc3Sc3cc(N(C)C)ccc32)CCCC1 [Compound 4c] | 17.6 ± 1.8 µM | 1.13 ± 0.09 | 4.39 ± 0.26 µM | 41.4 ± 1.71 µM | 5.5 ± 0.4 | 1.22 ± 0.01 µM | 14.9 ± 1.3% | 
COc1ccc2c(c1)c1c(n2CCC(=O)N2c3ccc(N(C)C)cc3Sc3cc(N(C)C)ccc32)CCCC1 [Compound 4d] | 39.3 ± 1.5 µM | 0.75 ± 0.05 | 10.5 ± 0.89 µM | 52.1 ± 2.7 µM | 4.8 ± 0.3 | 2.25 ± 0.07 µM | 17.3 ± 1.5% | 
COc1ccc2c(c1)c1c(n2CCC(=O)N2c3ccc(N(C)C)cc3Sc3cc(N(C)C)ccc32)CCC(C)C1 (stereo not shown) [Compound 4e] | 13.7 ± 0.9 µM | 1.46 and 1.46 ± 0.11 | 9.81 ± 0.18 µM |  | 13.3 ± 1.3 | 1.92 ± 0.14 µM | 15.0 ± 1.3% | 22.9 ± 2%
CN(C)c1ccc2c(c1)Sc1cc(N(C)C)ccc1N2C(=O)CCn1c2c(c3cc(F)ccc31)CCCC2 [Compound 4f] | 27.2 ± 1.6 µM | 0.85 ± 0.04 | 6.57 ± 0.57 µM | 18.4 ± 1.52 µM | 5.6 ± 0.4 | 1.11 ± 0.12 µM | 6.6 ± 0.7% | 
CN(C)c1ccc2c(c1)Sc1cc(N(C)C)ccc1N2C(=O)CCn1c2c(c3cc(OC(F)(F)F)ccc31)CCCC2 [Compound 4h] | 17.8 ± 1.4 µM | 1.10 ± 0.10 | 6.89 ± 0.09 µM | 47.6 ± 4.59 µM | 5.8 ± 0.5 | 0.89 ± 0.09 µM | 3.1 ± 0.5% | 
CC1CCc2c(c3cc(OC(F)(F)F)ccc3n2CCC(=O)N2c3ccc(N(C)C)cc3Sc3cc(N(C)C)ccc32)C1 (stereo not shown) [Compound 4i] | 17.2 ± 1.2 µM | 1.14 ± 0.11 | 1.94 ± 0.09 µM | 6.07 ± 0.58 µM | 5.1 ± 0.4 | 0.41 ± 0.03 µM | 3.5 ± 0.4% | 
CN(C)c1ccc2c(c1)Sc1cc(N(C)C)ccc1N2C(=O)CCn1c2c(c3ccccc31)CCCCC2 [Compound 4j] | 16.3 ± 1.4 µM | 1.15 ± 0.09 | 10.7 ± 0.67 µM | 9.98 ± 0.86 µM | 12.4 ± 0.2 | 2.7 ± 0.09 µM | 11.3 ± 1.2% | 
Cc1ccc2c(c1)c1c(n2CCC(=O)N2c3ccc(N(C)C)cc3Sc3cc(N(C)C)ccc32)CCCCC1 [Compound 4k] | 15.4 ± 1.3 µM | 1.20 ± 0.13 | 12.9 ± 0.53 µM | 22.2 ± 0.92 µM | 13.4 ± 1.3 | 4.12 ± 0.37 µM | 5.3 ± 0.6% | 
CN(C)c1ccc2c(c1)Sc1cc(N(C)C)ccc1N2C(=O)CCn1c2c(c3ccccc31)CCCCCC2 [Compound 4m] | 16.7 ± 1.6 µM | 1.11 ± 0.07 | 2.98 ± 0.1 µM | 21.7 ± 0.51 µM | 15.7 ± 1.5 | 0.57 ± 0.02 µM | 13.0 ± 1.1% | 
Cc1ccc2c(c1)c1c(n2CCC(=O)N2c3ccc(N(C)C)cc3Sc3cc(N(C)C)ccc32)CCCCCC1 [Compound 4n] | 14.9 ± 1.2 µM | 1.20 ± 0.14 | 6.26 ± 0.01 µM | 15.6 ± 1.13 µM | 10.9 ± 0.6 | 0.95 ± 0.07 µM | 33.1 ± 3.1% | 
CN(C)c1ccc2nc3ccc(=[N+](C)C)cc-3sc2c1 [MB, Methylene blue, reference compound] |  | not detectable |  | 11.1 ± 0.12 µM | not detectable |  | 12.3 ± 1.5% | 
CN(C)c1ccc2c(c1)Sc1cc(N(C)C)ccc1N2 [MBH2, reference compound] |  | not detectable | 1.76 ± 0.09 µM | 10.1 ± 0.16 µM | not detectable | 0.28 ± 0.02 µM | 17.2 ± 1.8% | 
